Experimental data from patent US20180055877A1, “THERAPEUTIC NANOPARTICLES AND METHODS THEREOF” (priority 2014, published 2018).
Converted amounts (≈) assume the structure as drawn.

Key:
[1] = system: T. rubrum; assay: aPI in the presence of ROS and RNS scavengers, CFU; format: cell-based; conditions: scavenger added before aPI with curcumin photosensitizer
Method: (§4) Different ROS and RNS scavengers were used to evaluate the effect of radical stress inhibition on aPI efficacy. […] Scavengers were added to fungal suspensions immediately before initiation of aPI and incubated for 1 h with RPMI 1640 without phenol red plus 2% glucose at 28° C. To evaluate fungal viability, 150 μL of the fungal suspensions were plated onto PDA, and incubated at 28° C. for 72 hours. The HT TitierTACS™ assay kit (Trevigen, Gaithersburg, Md., USA) was used to evaluate the occurrence of apoptosis after aPI.

[2] = system: Pseudomonas aeruginosa, MRSA, Escherichia coli, Klebsiella pneumoniae; conditions: same concentration as generated from the nanoparticles; cited from earlier work
[3] = system: MRSA clinical strains; assay: Bacterial growth susceptibility (OD600), MRSA; format: cell-based; conditions: all concentrations tested, up to 24 h, vs untreated
Method: (§1) In this example, 8 clinical strains each of MRSA and E. coli were evaluated. For each bacterial strain, one colony of bacteria grown on tryptic soy agar (TSA) was suspended in 1 mL tryptic soy broth (TSB). One μL aliquots were transferred to a 100-well honeycomb plate with 199 μL TSB. This TSB contained either 1, 2.5, 5, or 10 mg/mL SNO-CAP-np, or 2.5, 5, or 10 mM captopril, and controls included wells containing bacteria and TSB alone. The background absorbance of each SNO-CAP-np concentration was accounted for by wells containing SNO-CAP-np and TSB alone. No background absorbance was measured for captopril. […] All wells were incubated for 24 hours at 37° C. and growth was assessed by measuring optical density at 600 nm (OD600) with a microplate reader (Bioscreen C, Growth Curves USA, Piscataway, N.J.). Each condition was measured in triplicate, and averages were calculated along with standard error of the mean (SEM).
(§2) E. coli and MRSA strains were incubated at 37° C. with and without various concentrations of SNO-CAP-np (1, 2.5, 5, or 10 mg/mL) or captopril ([…]) for 24 h. […] Each data set represents averages for 8 strains of either E. coli or MRSA, and conditions for each strain were measured in triplicate. […]

[4] = system: MRSA; assay: Colony-forming units (CFU) assay, MRSA; format: cell-based; conditions: 24 h
Method: (§3) Following 24 h incubation of E. coli and MRSA, 10 μL aspirates from wells of the honeycomb plates were transferred to Eppendorf tubes with 990 μL PBS and gently vortexed. Controls were collected in the same fashion from wells containing only bacteria and TSB. The suspensions were serially diluted in PBS so that final concentrations were 10^−6 of the incubated concentration, and 100 μL aliquots were plated on TSA plates for 24 h. As with the absorbance assays, 8 clinical strains each of MRSA and E. coli were evaluated (data represents an average for the 8 strains each of E. coli and MRSA), and all conditions were measured in triplicate. CFU's were counted and recorded. Percent survival was determined by comparing CFU counts of SNO-CAP-np- or captopril-treated bacteria to CFU counts of untreated bacteria. P-value <0.05 by unpaired t-test was considered significant.

[5] = system: E. coli; assay: Colony-forming units (CFU) assay, E. coli; format: cell-based; conditions: 24 h
Method: as §3

[6] = system: E. coli clinical strains; assay: Bacterial growth susceptibility (OD600), E. coli; format: cell-based; conditions: all concentrations tested, up to 24 h, vs untreated
Method: as §1, §2

[7] = system: J774.16 macrophages challenged with T. rubrum; assay: Phagocytosis assay: J774.16 macrophages challenged with T. rubrum and treated with aPI; format: cell-based
Method: Macrophages were challenged with T. rubrum and treated with aPI to investigate the efficacy against infected mammalian cells. Specifically, J774.16 macrophages were grown at 37° C. with 10% CO2 in DMEM (Cellgro, Manassas, Va., USA). The fungal-macrophage cell proportion was 1:1, with 5.0×10^5 fungal cells to 5.0×10^5 macrophage cells. After challenging macrophages with T. rubrum microconidia, the cells were submitted to aPI, followed by incubation in the 10% CO2 chamber at 37° C. for 24 hours. The macrophages were lysed with cold distilled water and the lysate plated onto PDA and incubated at 28° C. for 72 hours.

[8] = system: T. rubrum; assay: Intracellular ROS and RNS after aPI, flow cytometry; format: cell-based; conditions: vs untreated
Method: Following aPI, samples were incubated with fluorescent probes for 30 minutes at 28° C., and subsequently analyzed with flow cytometry (Becton Dickinson™ LSRII, USA) using a 530/30 nm band pass filter for fluorescence detection. The Mean Fluorescence Intensity (MFI) was considered to determine radical production. Data analyses were performed using FlowJo 10.1 software.

[9] = system: T. rubrum; assay: In vivo antimicrobial photodynamic therapy (aPDT) pilot study; set-up: species or system BALB/c mice; conditions: 500 μg/mL in coconut oil, 10 J/cm^2 blue light, one treatment, CFU three days post treatment
Method: BALB/c mice were subcutaneously infected with T. rubrum. Seven days post-infection, mice (n=2 per group) were submitted to one treatment of aPDT, using 500 μg/mL of curcumin and curc-np suspended in coconut oil and 10 J/cm^2 of blue light. Pre-irradiation incubation time was 30 minutes, under light protection. Tissue was homogenized and CFUs quantified three days post treatment.

[10] = system: T. rubrum cells; assay: Apoptosis assay after aPI (HT TitierTACS kit); format: cell-based; conditions: vs untreated control
Method: as §4

[11] = system: T. rubrum; assay: Susceptibility testing (microdilution, CLSI M38-A) and growth curves; format: cell-based
Method: Susceptibility of T. rubrum to ground-state curcumin was tested by a microdilution method according to CLSI M38-A.49, 52 Itraconazole concentration ranged from 0.015 μg/mL to 8 μg/mL and curcumin and curc-np concentrations from 0.0012 μg/mL to 20 μg/mL. A 1% DMSO solution in control medium was evaluated. The MIC value was defined as the concentration required for 80% […] compared to untreated control. 12, 49 Growth kinetics of ground-state curcumin compared to aPI was also evaluated. Growth was evaluated for 7 days at 28° C. using a Bioscreen C growth curve system (Growth Curves USA, Piscataway, N.J., USA).

[12] = system: T. rubrum microconidia; assay: Antimicrobial photodynamic inhibition (aPI) optimization, CFU; format: cell-based
Method: In this example, a curcumin (Sigma-Aldrich, St. […] For susceptibility testing, the stock was dilution in RPMI 1640 medium to a final concentration of 40 μg/mL. For aPI, the stock was diluted in PBS to concentrations of 1.0, 10 and 100 μg/mL. […] A comparative concentration of curcumin incorporated in nanoparticles was used based on spectrophotometric release curves showing that each mg of curc-np contained 10 μg of curcumin. For susceptibility testing, 8 mg of curc-np was suspended in 1 mL of PBS and diluted in RPMI to a final concentration of […] (equivalent to 40 μg/mL of encapsulated curcumin). For aPI, 10 mg of curc-np was suspended in 1 mL of PBS and serially diluted to obtain 10 μg/mL, 100 μg/mL and 10 mg/L of curc-np (equivalent to 1.0, 10, and 100 μg/mL of encapsulated curcumin). The light source used was BLU-U® light model 4070 (DUSA pharmaceuticals, Wilmington, Mass., USA), which emits blue light at a wavelength of 417±5 nm. The doses used were 10 J/cm^2 (17 minutes), 20 J/cm^2 (34 minutes), and 40 J/cm^2 (68 minutes). BLU-U light was chosen as the light source due to its resonance with curcumin. For aPI optimization, fungal cells were submitted to different treatment conditions by varying the photosensitizer (PS) concentration and light dose, as described in Table 1, below. PS without photoactivation and blue light alone served as dark toxicity and light controls, respectively. […] [table]

In the case of OC[C@@H](O)[C@@H](O)[C@H](O)[C@H](O)CO [D-mannitol], the “inhibition of aPI efficacy by scavenger (fungal growth, CFU)” value (shortened to “inhibition of aPI efficacy by scavenger”) [1] is reported as “none of the concentrations”.

For Cl.O=S(=O)([O-])c1ccc(-c2c3nc(c(-c4ccc(S(=O)(=O)O)cc4)c4ccc([nH]4)c(-c4ccc(S(=O)(=O)O)cc4)c4nc(c(-c5ccc(S(=O)(=O)O)cc5)c5ccc2[nH]5)C=C4)C=C3)cc1.[Fe] [FeTPPs, 5,10,15,20-tetrakis-(4-sulfonatophenyl)-porphyrinato iron (III) chloride], the “inhibition of aPI efficacy by scavenger” value [1] was “T. rubrum growth was relatively intact despite aPI”.

For N[C@@H](CCC(=O)N[C@@H](CSN=O)C(=O)NCC(=O)O)C(=O)O [GSNO, S-nitrosoglutathione], the “antibacterial activity of an aliquot” value [2] is listed as “no antibacterial activity was observed”.

With O.O=S(=O)([O-])c1cc(O)c(O)c(S(=O)(=O)[O-])c1.[Na+].[Na+] [Tiron, 4,5-dihydroxy-1,3-benzenedisulfonic acid disodiumsalt hydrate] the “inhibition of aPI efficacy by scavenger” value [1] was “none of the concentrations”.

For C[C@H](CS)C(=O)N1CCC[C@H]1C(=O)O [captopril], the “effect on MRSA growth (OD600)” value [3] was “did not have an effect”, the “average MRSA survival compared with untreated controls” value ([4]; 2.5 mM) was 99.3% and the “average MRSA survival compared with untreated controls” value ([4]; 5 mM) was 95.6%. For the same molecule, the “average MRSA survival compared with untreated controls” value ([4]; 10 mM) was 69.5%, the “average E. coli survival compared with untreated controls” value ([5]; 2.5 mM) was 85% and the “average E. coli survival compared with untreated controls” value ([5]; 5 mM) was 83.6%. For the same molecule, the “average E. coli survival compared with untreated controls” value ([5]; 10 mM) was 59.1% and the “effect on E. coli growth (OD600)” value [6] was “showed an effect on E. coli growth in a dose dependent fashion”.

For CC1(C)N([O])C(c2ccc(C(=O)O)cc2)=[N+]([O-])C1(C)C [carboxy-PTIO], the “inhibition of aPI efficacy by scavenger” value [1] was “T. rubrum growth was relatively intact despite aPI”.

For COc1cc(/C=C/C(=O)CC(=O)/C=C/c2ccc(O)c(OC)c2)ccc1O [curcumin], the “macrophage-induced destruction of T. rubrum cells, no aPI” value ([7]; ground state) was “caused a decrease in macrophage-induced destruction of T. rubrum cells”, the “fungal burden (CFU) in macrophages after aPI” value ([7]; vs untreated, dark toxicity and blue light controls) was “significantly reduced fungal burden” and the “fold change in NO. production” value ([8]; DAF-FM probe) was 6 fold. The “fold-change in ONOO. production” value ([8]; DHR 123 probe) was 7 fold, the “fold-change in ROS production” value ([8]; H2DCFDA probe) was 17 fold and the “fungal burden compared to untreated control” value [9] was “did not significantly reduce fungal burden”. The “apoptosis of T. rubrum cells after irradiation with blue light” value [10] was “significant trend towards increased apoptosis”, the “apoptosis of T. rubrum cells without irradiation” value [10] was “did not induce apoptosis” and the “fungal growth reduction, ground-state (no photoactivation)” value ([11]; seven-day incubation, 0.0012-20 μg/mL) was “did not yield significant 80% reduction of fungal growth”. For the same molecule, the “fungal viability (CFU) after aPI, lowest PS concentration” value ([12]; 0.1 μg/mL, blue light 40 J/cm^2) was “did not differ significantly from untreated control”, the “T. rubrum growth (CFU) after aPI at varying light dose” value ([12]; 10 μg/mL, blue light 10, 20 and 40 J/cm^2) was “completely inhibited T. rubrum growth” and the “fungal growth (CFU) after aPI, highest concentration” value ([12]; 10 μg/mL, blue light 40 J/cm^2) was “complete growth inhibition”. For the same molecule, the “fungal viability (CFU) after aPI” value ([12]; 1.0 and 10 μg/mL, blue light 40 J/cm^2, vs untreated) was “significantly decreased fungal viability” and the “fungal burden, PS without photoactivation (dark toxicity)” value ([12]; three concentrations tested, no light) was “did not reduce fungal burden”.

Work on CCC(C)n1ncn(-c2ccc(N3CCN(c4ccc(OCC5COC(Cn6cncn6)(c6ccc(Cl)cc6Cl)O5)cc4)CC3)cc2)c1=O (centres unmarked) [itraconazole] yielded an MIC ([11]; Trichophyton rubrum, clinical T. rubrum strain) of 0.25 µg/mL (≈ 0.354 µM).

With CC(=O)C(=O)[O-].[Na+] [sodium pyruvate] the “inhibition of aPI efficacy by scavenger” value [1] was “none of the concentrations”.
